Results taken from patent publication US20060216362A1, “Remedy” (priority 2003, published 2006).

Tests used:
Assay type in all cases: cell-based
[1] = system: mature adipocytes (3T3-L1 cells); assay: Glucose uptake enhancement inhibited by cytochalasin B (glucose transporter inhibitor)
Procedure: The influence of cytochalasin B on 2-deoxyglucose uptake into mature adipocytes stimulated with the sample in the adipocytes was tested in accordance with the method described in Example 17 on whether or not the enhancing action of the ethanol extract fraction from Polygonum hydropiper obtained in Example 15 on glucose uptake is inhibited by cytochalasin B, which is an inhibitor of a glucose transporter.
Specifically, as a sample, there was set a group with addition of a dimethyl sulfoxide solution of the ethanol extract fraction from Polygonum hydropiper so as to have a final concentration of 0.05% to a well (treatment for a short period of time). There were set a group without addition of the sample as a negative control, and a group with addition of insulin so as to have a final concentration of 1 μg/mL as a positive control. Furthermore, in each group, there was set a group with addition of cytochalasin B (manufactured by Nacalai Tesque, Inc., 10435-81) so as to have a final concentration of 40 μM at the same time as the time of addition of insulin or the sample. Thereafter, the amount of 2-deoxy-[1,2^3H(N)]-glucose taken into the adipocytes was determined in the same manner.

[2] = system: mature adipocytes (3T3-L1 cells); assay: Synergistic action of ethanol extract fraction and low-concentration insulin to enhance glucose uptake; details: insulin alone, final concentration 0.01 μg/mL, 30 minutes; vs negative control
Procedure: As the evaluation of synergistic action of the ethanol extract fraction from Polygonum hydropiper prepared in Example 15 and a low-concentration insulin to enhance glucose uptake, the amount of 2-deoxyglucose uptake into mature adipocytes stimulated with the sample (the above-mentioned extract fraction from Polygonum hydropiper and insulin) was determined partly in accordance with the method described in Example 17. The mature adipocytes were prepared in accordance with the method described in Example 3.
After the termination of the culture, the medium was removed, and the cells were washed twice with a 0.1% (w/v) bovine serum albumin-containing Dulbecco's modified Eagle's medium. Thereafter, the cells were cultured overnight at 37° C. in the presence of 5% carbon dioxide gas. After the overnight culture, the cells were washed twice with a HEPES buffered saline (140 mM NaCl, 5 mM KCl, 2.5 mM MgSO4, 1 mM CaCl2, 20 mM HEPES-Na (pH 7.4)). The amount 0.9 mL of the same buffer was added thereto, and the cells were cultured at 37° C. for 45 minutes. […] Thereafter, 2-deoxy-[1,2-3H(N)]-glucose taken into the adipocytes was determined in the same manner as the method described in Example 3.

[3] = system: Preadipocyte cell line 3T3-L1; assay: Induction of differentiation into adipocytes, determined as amount of biosynthesis of triglyceride; details: positive control, 4 μl then 2 μl of a 5 mg/ml aqueous solution per 2 ml well
Excerpt: There have been known that insulin enhances induction of differentiation of preadipocytes into adipocytes, and that glucose uptake takes place in matured adipocytes thereby accumulating triglyceride in the adipocytes (J. Biol. Chem., Vol. 253, No. 20, P7570-7578 (1978)). Specifically, utilizing this method, an insulin-mimetic action of a test substance can be determined by administering a test substance in place of insulin, and determining differentiation into an adipocyte and the amount of triglyceride in the adipocytes.
The induction of differentiation into adipocytes was carried out by partially modifying the above-mentioned method of Rubin C. S. et al. (J. Biol. Chem., Vol. 253, No. 20, P7570-7578 (1978)). Preadipocyte cell line 3T3-L1 (ATCC CCL-92.1) was suspended in a 10% fetal bovine serum (manufactured by GIBCO)-containing Dulbecco's modified Eagle's medium (manufactured by Sigma, D6046) containing 200 μM ascorbic acid (hereinafter referred to as A-D-MEM medium) so as to have a density of 4×10^3 cells/ml, and the suspension was put in each well of a 12-well microtiter plate in an amount of 2 ml per well. The cells were cultured at 37° C. for 7 days in the presence of 5% carbon dioxide gas. […]
The amount of triglyceride in the adipocytes was determined as an index for inducing differentiation into matured adipocytes, and as evaluation of insulin-mimetic action. […]

[4] = system: mature adipocytes (3T3-L1 cells); assay: Enhancing action on glucose uptake: 2-deoxy-[1,2-3H(N)]-glucose uptake into mature adipocytes; details: positive control, final concentration 1 μg/mL, added when 45 minutes passed; vs negative control
Excerpt: In addition, there have been known that insulin has an enhancing action on glucose uptake into a cell, and that glucose uptake into the cell is enhanced by the action of insulin in a matured adipocyte (J. Biol. Chem., Vol. 253, No. 20, P7579-7583 (1978)). Specifically, utilizing this method, an insulin-mimetic action of a test substance can be determined by administering a test substance in place of insulin, and determining the amount of glucose uptake into a matured adipocyte.
The induction of differentiation into mature adipocytes was carried out by partially modifying the method of Rubin C. S. et al. 3T3-L1 cells were suspended in a 10% fetal bovine serum-containing Dulbecco's modified Eagle's medium (manufactured by Sigma, D6046) containing 200 μM ascorbic acid so as to have a density of 4×10^3 cells/ml, and the suspension was put in each well of a 12-well microtiter plate in an amount of 2 ml per well. The cells were cultured at 37° C. for 7 days in the presence of 5% carbon dioxide gas. […]
As the evaluation of enhancing action on glucose uptake, and also as the evaluation of insulin-mimetic action, the amount of 2-deoxyglucose uptake into mature adipocytes stimulated with the sample (the above-mentioned extract fraction from Corchorus olitorius) in the adipocytes was determined. […]

| Compound | effect on 2-deoxy-[1,2-3H(N)]-glucose uptake ([1]; cytochalasin B 40 μM added at the same time as insulin or sample, in every group) | enhancement of 2-deoxy-[1,2-3H(N)]-glucose uptake [2] | enhancement of 2-deoxy-[1,2-3H(N)]-glucose uptake ([1]; positive control, final concentration 1 μg/mL, without cytochalasin B, vs negative control) | induction of triglyceride biosynthesis (differentiation into adipocytes) [3] | enhancement of 2-deoxy-[1,2-3H(N)]-glucose uptake [4] |
| --- | --- | --- | --- | --- | --- |
| C=C1[C@@H](C)[C@H]2[C@H](Cc3ccccc3)NC(=O)[C@]23OC(=O)/C=C/[C@H](O)CCC[C@@H](C)C/C=C/[C@H]3[C@@H]1O [cytochalasin B] | almost completely inhibited |  |  |  |  |
| insulin |  | enhancement of 2-deoxy-[1,2^3H(N)]-glucose uptake was found | enhancement of 2-deoxy-[1,2^3H(N)]-glucose uptake was found | induction of triglyceride biosynthesis could be also confirmed | enhancement of 2-deoxy-[1,2^3H(N)]-glucose uptake was found |
